“And” between values parts separate entries of the source, which are not always exact repeats. Equal values may be shown once. Read-outs that look alike come from different tables or passages of the source.
Test system: Raf-1^gof intestinal tumors
Conditions: for Log2 (fold) of luciferase activity relative to DMSO controls / Fold (luciferase activity relative to DMSO controls): ICCB compounds fed in vials to flies with one-day old Raf-1^gof tumors
[1] = screen of 480 ICCB compounds in vials, compounds fed to flies with one-day old Raf-1^gof tumors, assessed three days later, esg-Gal4 luciferase
[2] = screen of 480 ICCB compounds in vials, compounds fed to flies with one-day old Raf-1^gof tumors, assessed three days later, esg-Gal4 luciferase, averaged from multiple wells
[3] = assessed three days later, averaged from multiple wells
Note: test concentration or dose not given here.

Compound | Log2 (fold) (luciferase activity, log2 of the fold difference relative to DMSO controls) [1] | Fold (luciferase activity, fold difference relative to DMSO controls) [2] | Log2 (fold) of luciferase activity relative to DMSO controls (assessed three days later) | Fold (luciferase activity relative to DMSO controls) [3] [fold] | other results
CC(=O)N[C@@H](CSC/C=C(\C)CC/C=C(\C)CCC=C(C)C)C(=O)O | −0.664 | 0.631 |  |  | 
Nc1ccc2c3c(cccc13)C(=O)NC2=O | −0.433 | 0.741 |  |  | 
NC(=O)c1cccc(N)c1 |  |  | −0.160 | 0.895 | 
CCOc1ccc(-c2nc3ccc(-c4nc5ccc(N6CCN(C)CC6)cc5[nH]4)cc3[nH]2)cc1 | −0.592 | 0.663 |  |  | 
O=C(O)c1ccccc1Nc1ccccc1 | −0.355 | 0.782 |  |  | 
NC(=Nc1ccccc1)NC(=O)c1nc(Cl)c(N)nc1N |  |  | 0.088 | 1.063 | 
CC(N/C(=N\C#N)Nc1ccncc1)C(C)(C)C (centres unmarked) | −0.591 | 0.664 |  |  | 
COc1ccc(CCN(C)CCCC(C#N)(c2ccc(OC)c(OC)c2)C(C)C)cc1OC (centres unmarked) |  |  |  |  | Fold (luciferase activity, fold difference relative to DMSO controls) (in vivo): 0.838; Log2 (fold) (luciferase activity, log2 of the fold difference relative to DMSO controls) (in vivo): −0.255
CCCCC(C)(O)C/C=C/[C@H]1[C@H](O)CC(=O)[C@@H]1CCCCCCC(=O)O (mixture of isomers) [MISOPROSTOL, FREE ACID] |  |  | −0.137 | 0.909 | 
CCCCCCCCCCCCCCC[C@H](O)[C@@H](N)CO (racemic) [DL-DIHYDROSPHINGOSINE] |  |  | 0.076 | 1.054 | 
CCCCCCCCCC(=O)N[C@H](CN1CCOCC1)[C@H](O)c1ccccc1 (racemic) [DL-PDMP] |  |  | 0.078 | 1.056 | 
CCCCCCCCCCCCCCCC(=O)N[C@H](CN1CCOCC1)[C@H](O)c1ccccc1 (racemic) [DL-PPMP] |  |  | 0.108 | 1.078 | 
O=C(O)CCC/C=C\C[C@@H]1[C@@H](/C=C/[C@@H](O)COc2cccc(C(F)(F)F)c2)[C@H](O)C[C@@H]1O (racemic) [FLUPROSTENOL] |  |  | 0.058 | 1.041 | 
COC1=CC(=O)O[C@@H](/C=C/c2ccccc2)C1 (racemic) [Kavain (+/−)] | −0.357 | 0.781 |  |  | 
CN(C)C[C@H](O)Cn1c2ccc(Br)cc2c2cc(Br)ccc21 (racemic) [Wiskostatin] | −0.646 | 0.639 |  |  | 
Clc1ccc(C2CC3CCC2N3)cn1 (racemic) [epibatidine (+/−)] | −0.457 | 0.729 |  |  | 
CCCCCCCCCC(=O)OCC(CO)OC(=O)CCCCCCCCC (centres unmarked) [1,2-DIDECANOYL-GLYCEROL (10:0)] |  |  | 0.310 | 1.240 | 
CCCCCCCC(=O)OC[C@H](CO)OC(=O)CCCCCCC [1,2-DIOCTANOYL-SN-GLYCEROL] |  |  | −0.080 | 0.946 | 
CCCCCCCC/C=C\CCCCCCCC(=O)OCC(CO)OC(=O)CCCCCCC/C=C\CCCCCCCC (centres unmarked) [1,2-DIOLEOYL-GLYCEROL (18:1)] |  |  | 0.443 | 1.359 | 
C=C1/C(=C\C=C2/CCC[C@]3(C)[C@@H]([C@H](C)CCCC(C)(C)O)CC[C@@H]23)C[C@@H](O)C[C@@H]1O [1,25-DIHYDROXYVITAMIN D3] |  |  | 0.677 | 1.599 | 
CCCCC/C=C\C/C=C\C/C=C\C/C=C\CCCC(=O)OC(CO)COCCCCCCCCCCCCCCCC (centres unmarked) [1-HEXADECYL-2-ARACHIDONOYL-GLYCEROL] | −0.379 | 0.769 |  |  | 
CCCCCCCCCCCCCCCCOCC(COP(=O)([O-])OCC[N+](C)(C)C)OC (centres unmarked) [1-HEXADECYL-2-METHYLGLYCERO-3 PC] |  |  | 0.060 | 1.042 | 
CCCCCCCCCCCCCCCCOCC(CO)OC(C)=O (centres unmarked) [1-HEXADECYL-2-O-ACETYL-GLYCEROL] |  |  | 0.518 | 1.432 | 

Compound | Log2 (fold) (luciferase activity, log2 of the fold difference relative to DMSO controls) [1] | Fold (luciferase activity, fold difference relative to DMSO controls) [2] | Log2 (fold) of luciferase activity relative to DMSO controls (assessed three days later) | Fold (luciferase activity relative to DMSO controls) [3] [fold] | other results
CCCCCCCCCCCCCCCCOCC(CO)OC (centres unmarked) [1-HEXADECYL-2-O-METHYL-GLYCEROL] | −0.219 | 0.859 |  |  | 
CCCCCCCCCCCCCCCCCCOCC(COP(=O)([O-])OCC[N+](C)(C)C)OC (centres unmarked) [1-OCTADECYL-2-METHYLGLYCERO-3 PC] | −0.538 | 0.689 |  |  | 
CCCCCCCC/C=C\CCCCCCCC(=O)OCC(CO)OC(C)=O (centres unmarked) [1-OLEOYL-2-ACETYL-GLYCEROL] | −0.727 and −0.716 | 0.604 and 0.609 |  |  | 
CCCCC/C=C\C/C=C\C/C=C\C/C=C\CCCC(=O)O[C@@H](CO)COC(=O)CCCCCCCCCCCCCCCCC [1-STEAROYL-2-ARACHIDONOYL-GLYCEROL] | −0.532 | 0.692 |  |  | 
CCCCC/C=C\C/C=C\CCCCCCCC(=O)OC(CO)COC(=O)CCCCCCCCCCCCCCCCC (centres unmarked) [1-STEAROYL-2-LINOLEOYL-GLYCEROL] | −0.456 | 0.729 |  |  | 
CC(C)(C)c1cc(O)c(C(C)(C)C)cc1O [2,5-ditertbutylhydroquinone] | −0.293 | 0.816 |  |  | 
CCCCC/C=C\C/C=C\C/C=C\C/C=C\CCCC(=O)OC(CO)CO [2-ARACHIDONOYLGLYCEROL] |  |  | 0.119 | 1.086 | 
CCCCCCCCCCCCCCC(F)C(=O)O (centres unmarked) [2-FLUOROPALMITIC ACID] |  |  | 0.051 | 1.036 | 
CCCCCCCCCCCCC(O)C(=O)O (centres unmarked) [2-HYDROXYMYRISTIC ACID] |  |  | 0.087 | 1.062 | 
CCCC[C@H]1C(=O)O[C@H](C)[C@H](NC(=O)c2cccc(NC=O)c2OC)C(=O)O[C@@H](C)[C@@H]1OC(=O)CC(C)C [2-methoxyantimycin A3] | −0.873 | 0.546 |  |  | 
O=c1oc(Cl)c(Cl)c2ccccc12 [3,4-dichloroisocoumarin] | −0.772 | 0.586 |  |  | 
CC1=C(/C=C/C(C)=C/C=C/C(C)=C/C(=O)Nc2ccc(O)cc2)C(C)(C)CCC1 [4-HYDROXYPHENYLRETINAMIDE] | −0.244 | 0.845 |  |  | 
CCCCCCCCCCOCCC(=O)O [4-OXATETRADECANOIC ACID] |  |  | 0.004 | 1.003 | 
CCCCC/C=C\C/C=C\C/C=C\C=C\[C@@H](O)CCCC(=O)O [5(S)-HETE] | −0.343 | 0.788 |  |  | 
CCCCC/C=C\C/C=C\C/C=C\C=C\[C@H](CCCC(=O)O)OO [5(S)-HPETE] | −0.524 | 0.696 |  |  | 
CCCCCC=CCC=CCC=CCC1OC1CCCC(=O)O (centres unmarked) [5,6-EPOXYEICOSATRIENOIC ACID] |  |  | −0.164 | 0.892 | 
CCCCCCCCC#CCC#CCC#CCCCC(=O)O [5,8,11-EICOSATRIYNOIC ACID] |  |  | 0.094 | 1.067 | 
CCCCCC(O)CCCC(=O)O (centres unmarked) [5-HYDROXYDECANOATE] | −0.357 | 0.781 |  |  | 
CCCCCC=CCC=CCC=CC=CC(=O)CCCC(=O)O [5-KETOEICOSATETRAENOIC ACID] | −0.316 | 0.803 |  |  | 
CCNC(=O)[C@H]1O[C@@H](n2cnc3c(N)ncnc32)[C@H](O)[C@@H]1O [5′-N-Ethylcarboxamidoadenosine (NECA)] |  |  | −0.024 | 0.983 | 
Br.NC1CCc2cc(O)c(O)cc2C1 (centres unmarked) [6,7-ADTN HBr] | −0.383 | 0.767 |  |  | 
O=Cc1c2[nH]c3ccccc3c2cc2[nH]c3ccccc3c12 [6-FORMYLINDOLO [3,2-B] CARBAZOLE] | −0.273 | 0.828 |  |  | 
CCCCC[C@H](O)/C=C/[C@@H]1[C@@H](CC(=O)CCCCC(=O)O)[C@@H](O)C[C@H]1O [6-KETO-PROSTAGLANDIN F1a] | −0.435 | 0.740 |  |  | 

From patent US20130096067A1, “DROSOPHILA TUMOR STEM CELL MODEL AND USES THEREOF” (priority 2011, published 2013)
